Some test systems named below: RXF 393 renal; TK-10 renal; DU-145 prostate; MCF7 breast; IGROV1 ovarian; NCI-H460 lung; UACC-257 melanoma; CAKI-1 renal; EKVX NSCLC; ACHN renal.
Common to all, as to assay: inhibition of tumour cell growth, NCI panel, 48 h

“And” between values parts separate entries of the source, which are not always exact repeats. Equal entries are not always repeated.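 Following 48 hours of exposure in 96-well plates, responses at five concentrations were used to interpolate endpoints linearly. Abbreviation: GI50, concentration required for 50% inhibition of growth. TGI marks complete inhibition of growth.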 Some results are limits rather than exact numbers.

Regarding `COc1ccc(N=Nc2ccc(O)c(=O)cc2)cc1`, the GI50 is 3.71 µM in the assay on RXF 393 renal; 5.8 µM in the assay on TK-10 renal; 4.07 µM in the assay on DU-145 prostate; 3.4 µM in the assay on MCF7 breast; 3.86 µM in the assay with IGROV1 ovarian; 1.79 µM with NCI-H460 lung. For the same molecule, the GI50 with UACC-257 melanoma was 3.12 µM; in the assay on CAKI-1 renal it was 3.77 µM; with EKVX NSCLC, 4.3 µM; with ACHN renal, 3.37 µM. For the same molecule, the TGI was greater than 100 µM in the assay on RXF 393 renal; greater than 100 µM in the assay on TK-10 renal; greater than 100 µM with DU-145 prostate; greater than 100 µM in the assay with MCF7 breast; greater than 100 µM in the assay with IGROV1 ovarian; 18.9 µM in the assay with NCI-H460 lung. The TGI in the assay on UACC-257 melanoma, in the assay with CAKI-1 renal, in the assay on EKVX NSCLC and with ACHN renal was greater than 100 µM in each case.

For `COc1ccc2[nH]c(C(=O)OCc3ccc4c(Br)cc(Br)c(O)c4n3)cc2c1`, the GI50 in the assay on RXF 393 renal was 0.486 µM; in the assay with TK-10 renal, 1.39 µM; in the assay with DU-145 prostate it was 1.12 µM; in the assay with MCF7 breast, 0.442 µM; in the assay on IGROV1 ovarian, 0.418 µM; in the assay with NCI-H460 lung, 1.48 µM. Also, the GI50 is 1.38 µM with UACC-257 melanoma, 0.482 µM with CAKI-1 renal, 1.41 µM in the assay with EKVX NSCLC and 0.343 µM with ACHN renal. Also, the TGI in the assay on RXF 393 renal amounted to 1.8 µM; in the assay with TK-10 renal it was 2.71 µM; with DU-145 prostate, 2.33 µM; with MCF7 breast, 2.05 µM; in the assay on IGROV1 ovarian, 1.67 µM; in the assay with NCI-H460 lung it was 3.18 µM. The TGI with UACC-257 melanoma was found to be 2.85 µM; in the assay on CAKI-1 renal, 1.83 µM; in the assay on EKVX NSCLC it was 2.82 µM; in the assay with ACHN renal it was 1.35 µM.

Consider `CN1C(=O)C(N=Nc2ccc([N+](=O)[O-])cc2)SC1=S` (configuration not stated), for which the GI50 in the assay with RXF 393 renal was 16.6 µM and 12.5 µM; with TK-10 renal, 12.6 µM and 5.87 µM; in the assay with DU-145 prostate, 7.11 µM and 22.1 µM; with MCF7 breast, 6.1 µM and 16.6 µM; in the assay with IGROV1 ovarian it was 1.99 µM and 11.4 µM; in the assay on NCI-H460 lung, 2.98 µM and 5.43 µM. Further, the GI50 is 3.63 µM and 10.9 µM in the assay on UACC-257 melanoma; 1.18 µM and 3.88 µM with CAKI-1 renal; 2.82 µM and 8.54 µM in the assay with EKVX NSCLC; 3.19 µM and 9.51 µM in the assay on ACHN renal. For the same molecule, the TGI in the assay with RXF 393 renal was 97.4 µM and 77.5 µM; in the assay with TK-10 renal, 79.7 µM and > 100 µM; in the assay with DU-145 prostate, 41.6 µM and > 100 µM; in the assay with MCF7 breast, greater than 100 µM; in the assay with NCI-H460 lung, 24.9 µM and > 100 µM; in the assay with UACC-257 melanoma, 27.1 µM and 54.4 µM. The TGI in the assay on CAKI-1 renal is 7.8 µM and 50 µM; with EKVX NSCLC it was 28 µM and 96.9 µM; in the assay with ACHN renal, 99 µM and 62.4 µM.

For `O=C(O)CN1C(=O)OC(c2ccccc2)C1=O` (configuration not stated), the TGI with RXF 393 renal, in the assay with TK-10 renal, in the assay with DU-145 prostate, in the assay on MCF7 breast, with IGROV1 ovarian and in the assay on NCI-H460 lung was greater than 100 µM throughout. Also, the TGI in the assay with UACC-257 melanoma, in the assay with CAKI-1 renal, with EKVX NSCLC and in the assay with ACHN renal was greater than 100 µM in each case.

For the molecule `CC(C)(C)N1CC1CNC(=O)C(=O)NCC1CN1C(C)(C)C` (configuration not stated), the TGI with RXF 393 renal is 5.22 µM; in the assay on TK-10 renal it was greater than 100 µM; in the assay with DU-145 prostate, greater than 26.9 µM; with MCF7 breast, greater than 100 µM; in the assay on IGROV1 ovarian it was 19.7 µM; in the assay with NCI-H460 lung, 24.7 µM. Besides, the TGI with UACC-257 melanoma is 11.1 µM; in the assay with CAKI-1 renal, greater than 96.1 µM; with EKVX NSCLC it was greater than 31.1 µM; in the assay on ACHN renal, 13.7 µM.

Regarding `Cn1cc(-c2csc(-c3ccccc3)n2)c2cccnc21`, the GI50 is 14.6 µM in the assay with RXF 393 renal; 17.9 µM in the assay with TK-10 renal; 15 µM with DU-145 prostate; 12.6 µM with MCF7 breast; 16.5 µM in the assay with IGROV1 ovarian; 16 µM in the assay on NCI-H460 lung. The GI50 in the assay with UACC-257 melanoma was 21.1 µM; in the assay with CAKI-1 renal, 7.1 µM; in the assay on EKVX NSCLC it was 5.2 µM; in the assay with ACHN renal, 17.1 µM. Besides, the TGI stood at 33.2 µM in the assay with RXF 393 renal; 39.1 µM with TK-10 renal; 29.3 µM with DU-145 prostate; 33.8 µM in the assay on MCF7 breast; 37.4 µM in the assay on IGROV1 ovarian; 31 µM with NCI-H460 lung. In addition, the TGI in the assay with UACC-257 melanoma was found to be 44.4 µM; with CAKI-1 renal, 31.7 µM; in the assay on EKVX NSCLC, 35.2 µM; in the assay with ACHN renal it was 52.3 µM.

Take `COC(=O)C1C(C(=O)O)C2(c3ccccc3)C(=O)C1(c1ccccc1)C(c1ccc(OC)cc1)=C2c1ccc(OC)cc1` (configuration not stated): the GI50 in the assay with RXF 393 renal is 16.1 µM; in the assay with TK-10 renal, 31.8 µM; in the assay with DU-145 prostate, 19.9 µM; in the assay with MCF7 breast, 20.3 µM; in the assay with IGROV1 ovarian, 19.9 µM; with NCI-H460 lung, 13.7 µM. Moreover, the GI50 with UACC-257 melanoma is 19.1 µM; with CAKI-1 renal, 20.9 µM; in the assay with EKVX NSCLC, 18.6 µM; in the assay with ACHN renal, 36.6 µM. For the same molecule, the TGI is 34.8 µM in the assay on RXF 393 renal; greater than 100 µM in the assay on TK-10 renal; 49.8 µM in the assay with DU-145 prostate; 38.9 µM with MCF7 breast; 45.8 µM in the assay with IGROV1 ovarian; 31 µM in the assay with NCI-H460 lung. Moreover, the TGI in the assay with UACC-257 melanoma is 43.9 µM; in the assay with CAKI-1 renal, 43.6 µM; in the assay on EKVX NSCLC it was 52.7 µM; in the assay with ACHN renal, greater than 100 µM.

For `CC(=O)OC1C(O)C(C)OC(OC2C(OC(=O)C3CCC4C(C3)OC3(CC(OC(=O)/C=C/c5ccccc5)C(C)CO3)C43CO3)OC(C)C(O)C2OC(C)=O)C1O` (configuration not stated), the TGI in the assay with RXF 393 renal was 0.121 µM; in the assay on TK-10 renal, 0.225 µM; in the assay on DU-145 prostate, 0.0714 µM; with MCF7 breast, 0.0825 µM; with IGROV1 ovarian, 0.0922 µM; in the assay on NCI-H460 lung, 0.141 µM. Also, the TGI in the assay on UACC-257 melanoma was found to be 0.0811 µM; with CAKI-1 renal it was 1.21 µM; in the assay on EKVX NSCLC, 0.074 µM; in the assay with ACHN renal, 0.648 µM.

As to `CCN1C(=O)/C(=c2\sc3n(c2=O)C2C(NN=3)N(CC)C(=O)N2CC)c2ccccc21` (configuration not stated), the GI50 is 0.279 µM in the assay with RXF 393 renal; 5.97 µM in the assay on TK-10 renal; 0.582 µM in the assay on DU-145 prostate; 0.357 µM in the assay on MCF7 breast; 0.574 µM in the assay with IGROV1 ovarian; 0.402 µM in the assay with NCI-H460 lung. In addition, the GI50 in the assay with UACC-257 melanoma was 22.4 µM; with CAKI-1 renal, 0.465 µM; with EKVX NSCLC, 0.851 µM; with ACHN renal, 0.726 µM. In addition, the TGI was 0.814 µM in the assay on RXF 393 renal; 24.6 µM in the assay with TK-10 renal; 29.2 µM in the assay with DU-145 prostate; greater than 100 µM in the assay with MCF7 breast; greater than 65.5 µM with IGROV1 ovarian; greater than 100 µM with NCI-H460 lung. Moreover, the TGI in the assay with UACC-257 melanoma is greater than 100 µM; with CAKI-1 renal, 32.2 µM; in the assay with EKVX NSCLC it was greater than 100 µM; in the assay with ACHN renal, greater than 47.9 µM.

Turning to `CC(C)c1cnc(-c2cc(Cl)ccc2F)cc1Nc1ccncc1C(=O)NC(CO)CO`, the GI50 with RXF 393 renal was 10.3 µM; in the assay on TK-10 renal, 10.8 µM; in the assay with DU-145 prostate, 13.4 µM; in the assay with MCF7 breast it was 11.6 µM; with IGROV1 ovarian, 10.3 µM; in the assay with NCI-H460 lung, 12.5 µM. Moreover, the GI50 is 16.3 µM in the assay on UACC-257 melanoma, 6.28 µM in the assay on CAKI-1 renal, 11.2 µM in the assay with EKVX NSCLC and 11.1 µM with ACHN renal. For the same molecule, the TGI in the assay with RXF 393 renal is 27 µM; in the assay with TK-10 renal, 56 µM; in the assay on DU-145 prostate it was 42 µM; in the assay with MCF7 breast, 27.3 µM; in the assay on IGROV1 ovarian, 35.4 µM; in the assay with NCI-H460 lung, 28.3 µM. For the same molecule, the TGI is 33.7 µM in the assay on UACC-257 melanoma, 68.7 µM in the assay with CAKI-1 renal, 24.6 µM with EKVX NSCLC and 29 µM with ACHN renal.

With `COc1ccc(-c2nc3sccn3c2-c2ccnc(NCCNS(=O)(=O)c3ccc(C(F)(F)F)cc3)n2)cc1`, the GI50 in the assay with RXF 393 renal is 2.66 µM; in the assay with TK-10 renal, 2.87 µM; with DU-145 prostate it was 1.53 µM; with MCF7 breast, 3.15 µM; in the assay on IGROV1 ovarian, 3.18 µM; in the assay with NCI-H460 lung, 2 µM. The GI50 with UACC-257 melanoma was 4.41 µM; in the assay on CAKI-1 renal it was 2.64 µM; in the assay on EKVX NSCLC it was 4.04 µM; with ACHN renal it was 2.58 µM. Besides, the TGI in the assay with RXF 393 renal is 63.2 µM; in the assay with TK-10 renal, greater than 100 µM; in the assay on DU-145 prostate it was greater than 100 µM; in the assay with MCF7 breast it was greater than 100 µM; with IGROV1 ovarian, greater than 100 µM; in the assay with NCI-H460 lung it was 11.6 µM. Also, the TGI in the assay on UACC-257 melanoma, with CAKI-1 renal, in the assay with EKVX NSCLC and with ACHN renal was greater than 100 µM in each case.

`Nc1nc(N)c2cc(S(=O)(=O)c3ccc4ccccc4c3)ccc2n1`: the GI50 in the assay with RXF 393 renal is 3.81 µM; in the assay with DU-145 prostate it was 7.78 µM; in the assay on MCF7 breast, 5.17 µM. For the same molecule, the TGI in the assay with RXF 393 renal is 48 µM; in the assay with TK-10 renal it was greater than 81.2 µM; with DU-145 prostate, greater than 100 µM; in the assay on MCF7 breast, greater than 100 µM; with IGROV1 ovarian, greater than 100 µM; in the assay on NCI-H460 lung, greater than 100 µM. The TGI is 2.67 µM with UACC-257 melanoma, greater than 100 µM in the assay on CAKI-1 renal, greater than 100 µM with EKVX NSCLC and greater than 100 µM in the assay with ACHN renal.

Source of the values: PubChem BioAssay (NCI).
